Laboratory results from patent US20230406825A1, “COMPOUNDS, COMPOSITIONS THEREOF, AND METHODS FOR TREATING ER+ BREAST CANCER” (The Board of Regents of The University of Texas System, priority 2020, published 2023).
Entries after “also recorded” stand apart in the source; their conditions may differ.

Tests used:
[1] = system: ER+ breast cancer cell lines (MCF-7, ZR-75 and T-47D); assay: Cell Titer-Glo dose dependent viability assay, ER+ breast cancer cell lines; assay type: cell-based
Protocol: (§1) To measure the effects of TC-E 5008 on cell viability, breast cancer cells were seeded in 96-well plates (4×10^3 cells/well) in RPMI medium containing 10% fetal bovine serum. After an overnight incubation, cells were treated with varying concentrations of TC-E 5008 or other mutant IDH1 inhibitors for 72 hours. Viability was measured using Cell Titer-Glo Luminescent Cell Viability Assay (Promega) in 96-well, flat, clear-bottom, opaque-wall micro plates according to manufacturer's protocol. IC50 was less than […] in ER+ breast cancer cell lines and greater than […] in ER− breast cancer cell lines, as shown in the Figures.
(§2) A compound having a structure in accordance with Formula II (sometimes referred to herein as “TC-E 5008”) was selected for validation with an integrated confidence score of 1362.6. Three commonly used ER-positive breast cancer cell lines MCF-7, ZR-75 and T-47D were used for in vitro validation.

[2] = system: ER− breast cancer cell lines (triple negative breast cancer cell line); assay: Cell Titer-Glo dose dependent viability assay, ER- breast cancer cell lines; assay type: cell-based
Protocol: as §1, §2

[3] = system: ER-positive breast tumors samples; assay: Patient-derived explant (PDE) ex vivo culture of primary breast tumors, Ki-67 staining; assay type: cell-based, human
Protocol: Excised tissue samples were processed and cultured ex vivo. De-identified tumors were obtained from the University of Texas Southwest Tissue Repository after institutional review board approval. Briefly, tumor samples were incubated on gelatin sponges for 24 hours in culture medium containing 10% fetal bovine serum (hereafter “FBS”), followed by treatment with either vehicle, 10 μM TC-E 5008 for 72 hours. Representative tissues were fixed in 10% formalin at 4° C. overnight and subsequently processed into paraffin blocks. The sections were then processed for immunohistochemical analysis.
In order to further validate TC-E 5008, an ex vivo culture model of primary breast tumors was used—which allows for the validation of drugs on breast tumors in their native tissue architecture. Specifically, surgically resected breast tissues were sliced into small pieces and grown ex vivo for short term on a gelatin sponge in the absence or presence of desired compound (see FIG. 4). In order to test TC-E 5008 in a variety of ER-positive tumors, estrogen receptor positivity was the only inclusion criteria used for the breast tumor samples.

[4] = ER-positive tumor explants, 10 μM, 72 hours
[5] = ER-positive tumor explants, 10 μM, 72 hours, versus untreated controls

IC50 ([1]; ER+ breast cancer cell lines, 72 hours, Cell Titer-Glo): < 2 µM
IC50 ([2]; ER− breast cancer cell lines, 72 hours, Cell Titer-Glo): > 10 µM
morphological changes in the patient tissues ([3]; treated tissues compared to controls): did not observe morphological changes
SMILES: Cc1cc(Cc2ccccc2)n(O)c(=O)c1 [TC-E 5008]
anti-proliferative activity / proliferation ([1]; ER-positive lines MCF-7, ZR-75 and T-47D, FIG. 1, 8, 9): anti-proliferative activity; also recorded: blocked proliferation of all three ER-positive breast cancer cell lines
activity on proliferation ([2]; triple negative breast cancer cell line, FIG. 2): showed less activity
patients showing a reduction in Ki-67 staining (Partial responders) [3, 4]: 3/10
patients showing a significant reduction (Complete responders) [3, 4]: 4/10
patients with decreased proliferation (Ki-67 staining) [3, 4]: 7/10
reduction in Ki-67 staining, Complete responders [3, 5]: 40-95%
reduction in Ki-67 staining, Partial responders [3, 5]: 0-25%
tumor tissues showing an increase in proliferation (Non-responders) ([3]; compared to untreated controls, FIG. 7): Three
response rate ([3]; limited cohort of 10 ER-positive tumors): 40%
proliferative indices ([3]; primary tumor explants cultured ex vivo, 10 μM, 72 hour): significant decrease in proliferative indices
